Measurements published in patent US20090181986A1, “SUBSTITUTED HETEROCYCLIC COMPOUNDS” (priority 2007, published 2009).

Experiments:
[1] = test system: L-type calcium channel; assay: L-type calcium channel activity well-plate assay (IMR-32 cells, Ca-4 dye, FlexStation); type: cell-based, human
Experimental: Cell Culture: IMR-32 (human neuroblastoma) cells were obtained from The American Type Culture Collection. The cells were maintained in MEM supplemented with 10% fetal bovine serum, 2 mM of L-glutamine, 100 IU/ml of penicillin, 50 μg/ml of streptomycin, 1% of sodium pyruvate, 1% of sodium bicarbonate and 1% of non-essential amino acid. […] Culture medium was changed every two days and cells were recultivated when they reached 70-80% confluent.
Assay: IMR-32 cells were seeded on a Microtest 96-well Assay Plate (BD FALCON™) at a density of 200,000 cells/well in 200 μl culture medium for overnight. The culture medium was removed, and replaced by 120 μl Ca-4 dye (MDS Analytical Technologies, Sunnyvale, Calif.) in HBSS (1× Hank's Balanced Salt solution plus 20 mM HEPES, pH 7.4) containing 2 mM probenecid. Cells were then incubated for 1 hour at 37° in incubator. Testing compounds were diluted from 5 μM-50 μM in HBSS, and 40 μl were added in cells before assay. […] The inhibition of L-type calcium channel activity by compounds was then calculated.

[2] = target: hERG potassium channel (Homo sapiens, UniProt Q12809); assay: hERG screening assay (PatchXpress patch clamp, CHO cells)
Chain of hERG potassium channel (Q12809 whole entry): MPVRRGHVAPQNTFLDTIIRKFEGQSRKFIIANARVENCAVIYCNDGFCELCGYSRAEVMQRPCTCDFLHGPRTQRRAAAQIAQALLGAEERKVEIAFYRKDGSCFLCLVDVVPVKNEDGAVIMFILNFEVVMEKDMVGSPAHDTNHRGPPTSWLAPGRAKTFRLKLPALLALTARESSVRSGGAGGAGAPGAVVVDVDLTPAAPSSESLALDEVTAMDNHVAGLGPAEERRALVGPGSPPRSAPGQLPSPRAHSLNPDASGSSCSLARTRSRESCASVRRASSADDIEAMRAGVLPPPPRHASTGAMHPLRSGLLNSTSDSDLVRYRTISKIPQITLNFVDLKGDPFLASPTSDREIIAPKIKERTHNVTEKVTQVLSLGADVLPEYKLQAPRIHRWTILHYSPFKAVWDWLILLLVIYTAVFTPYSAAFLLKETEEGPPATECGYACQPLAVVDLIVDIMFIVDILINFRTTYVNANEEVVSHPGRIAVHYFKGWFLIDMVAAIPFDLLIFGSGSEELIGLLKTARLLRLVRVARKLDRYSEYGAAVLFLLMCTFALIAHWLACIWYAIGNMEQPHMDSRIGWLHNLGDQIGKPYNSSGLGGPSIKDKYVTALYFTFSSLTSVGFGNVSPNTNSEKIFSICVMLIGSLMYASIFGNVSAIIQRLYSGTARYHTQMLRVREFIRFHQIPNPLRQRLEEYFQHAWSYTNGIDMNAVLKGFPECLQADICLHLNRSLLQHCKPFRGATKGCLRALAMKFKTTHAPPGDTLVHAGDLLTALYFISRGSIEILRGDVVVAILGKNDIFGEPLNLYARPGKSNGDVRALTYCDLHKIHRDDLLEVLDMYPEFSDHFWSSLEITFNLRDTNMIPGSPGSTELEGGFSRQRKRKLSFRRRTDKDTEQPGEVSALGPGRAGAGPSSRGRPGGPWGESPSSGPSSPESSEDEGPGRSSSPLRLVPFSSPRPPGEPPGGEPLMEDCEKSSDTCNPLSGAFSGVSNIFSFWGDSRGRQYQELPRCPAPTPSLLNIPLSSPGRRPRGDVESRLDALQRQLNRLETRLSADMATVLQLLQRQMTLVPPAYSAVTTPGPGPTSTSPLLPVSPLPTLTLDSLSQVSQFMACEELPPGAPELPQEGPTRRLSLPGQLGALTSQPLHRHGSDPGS

SMILES	CaL Plate Assay % blk (1 μM test cmpd) [1]	CaL Plate Assay % blk (10 μM test cmpd) [1]	hERG Patch Clamp hERG % blk (1 μM test cmpd) [2]	hERG Patch Clamp hERG % blk (10 μM test cmpd) [2]
CC1=C(C(=O)OCc2ccccc2)C(c2cc3ccccc3o2)n2nnnc2N1 (stereo not shown) [PT-045, benzyl 7-(benzofuran-2-yl)-5-methyl-4,7-dihydrotetrazolo[1,5-a]pyrimidine-6-carboxylate]	0%	98%	10%	70%
CC1=C(C(=O)OC2CCc3ccccc32)C(c2cccc3ccccc23)n2nnnc2N1 (stereo not shown) [PT-062, 2,3-dihydro-1H-inden-1-yl 5-methyl-7-(naphthalen-1-yl)-4,7-dihydrotetrazolo[1,5-a]pyrimidine-6-carboxylate]	51%	–	–	14%
N#CC1=C(N)NC2=C(C(=O)CCC2)C1c1ccc(Br)cc1 (stereo not shown) [PT-095, 2-amino-4-(4-bromophenyl)-5-oxo-1,4,5,6,7,8-hexahydroquinoline-3-carbonitrile]	0%	15%	10%	24.5%
N#CC1=C(N)OC2=C(C(=O)CCC2)C1c1ccc(Br)cc1 (stereo not shown) [PT-096, 2-amino-4-(4-bromophenyl)-5-oxo-5,6,7,8-tetrahydro-4H-chromene-3-carbonitrile]	8%	39%	15%	48%
N#CC1=C(N)OC2=C(C(=O)CCC2)C1c1ccsc1 (stereo not shown) [PT-100, 2-amino-5-oxo-4-(thiophen-3-yl)-5,6,7,8-tetrahydro-4H-chromene-3-carbonitrile]	0%	0%	10%	16.5%
N#CC1=C(N)OC2=C(C(=O)CC(c3ccccc3)C2)C1c1cccs1 (stereo not shown) [PT-101, 2-amino-5-oxo-7-phenyl-4-(thiophen-2-yl)-5,6,7,8-tetrahydro-4H-chromene-3-carbonitrile]	6%	47%	19%	67.5%
N#CC1=C(N)OC2=C(C(=O)CC(c3ccccc3)C2)C1c1ccco1 (stereo not shown) [PT-104, 2-amino-4-(furan-2-yl)-5-oxo-7-phenyl-5,6,7,8-tetrahydro-4H-chromene-3-carbonitrile]	0%	27%	18%	46%
CCOC(=O)C1=C(C)NC(C)=C(C(=O)OCC)C1c1ccc2ccccc2c1 [PT-107, diethyl 2,6-dimethyl-4-(naphthalen-2-yl)-1,4-dihydropyridine-3,5-dicarboxylate]	10%	44%	11.5%	48%
CCOC(=O)C1=C(C)NC(C)=C(C(=O)OCC)C1c1cccs1 [PT-111, diethyl 2,6-dimethyl-4-(thiophen-2-yl)-1,4-dihydropyridine-3,5-dicarboxylate]	75%	79%	11.5%	48.5%
CCOC(=O)C1=C(C)NC(C)=C(C(=O)OCC)C1c1ccc(CC)s1 [PT-113, diethyl 4-(5-ethylthiophen-2-yl)-2,6-dimethyl-1,4-dihydropyridine-3,5-dicarboxylate]	18%	93%	11%	57.5%
CCOC(=O)C1=C(C)NC(C)=C(C(=O)OCC)C1c1cc2ccccc2s1 [PT-114, diethyl 4-(benzo[b]thiophen-2-yl)-2,6-dimethyl-1,4-dihydropyridine-3,5-dicarboxylate]	8%	15%	27.5%	86.5%
CCOC(=O)C1=C(C)NC(C)=C(C(=O)OCC)C1c1sc2ccccc2c1C [PT-116, diethyl 2,6-dimethyl-4-(3-methylbenzo[b]thiophen-2-yl)-1,4-dihydropyridine-3,5-dicarboxylate]	6%	32%	22.9%	66%
CCOC(=O)C1=C(C)NC(C)=C(C(=O)OCC)C1c1cc2ccccc2o1 [PT-122, diethyl 4-(benzofuran-2-yl)-2,6-dimethyl-1,4-dihydropyridine-3,5-dicarboxylate]	10%	63%	15.5%	55%
CC1=C(C(=O)OC(C)C)C(c2cccc3ccccc23)C(C(=O)OC(C)C)=C(C)N1 [PT-123, diisopropyl 2,6-dimethyl-4-(naphthalen-1-yl)-1,4-dihydropyridine-3,5-dicarboxylate]	59%	92%	10%	30.5%
CC1=C(C(=O)OC(C)C)C(c2ccc(Br)s2)C(C(=O)OC(C)C)=C(C)N1 [PT-124, diisopropyl 4-(5-bromothiophen-2-yl)-2,6-dimethyl-1,4-dihydropyridine-3,5-dicarboxylate]	10%	52%	11.5%	66%
CCCC1=C(C(=O)OCC)C(c2ccsc2)C2=C(CC(c3ccccc3)CC2=O)N1 (stereo not shown) [PT-149, ethyl 5-oxo-7-phenyl-2-propyl-4-(thiophen-3-yl)-1,4,5,6,7,8-hexahydroquinoline-3-carboxylate]	4%	72%	46%	90%
CCOC(=O)C1=C(C)NC2=C(C(=O)CCC2)C1c1ccco1 (stereo not shown) [PT-153, ethyl 4-(furan-2-yl)-2-methyl-5-oxo-1,4,5,6,7,8-hexahydroquinoline-3-carboxylate]	3%	44%	10.5%	13.5%
CC1=C(C(=O)N2CCC(c3ccc(C(=O)O)cc3)CC2)C(c2cccc3ccccc23)C2=C(CCCC2=O)N1 (stereo not shown) [PT-173, 4-(1-(2-methyl-4-(naphthalen-1-yl)-5-oxo-1,4,5,6,7,8-hexahydroquinoline-3-carbonyl)piperidin-4-yl)benzoic acid]	0%	26%	12%	37%
CC1=C(C(=O)NCc2ccccc2)C(c2ccsc2)C2=C(CCCC2=O)N1 (stereo not shown) [PT-178, N-benzyl-2-methyl-5-oxo-4-(thiophen-3-yl)-1,4,5,6,7,8-hexahydroquinoline-3-carboxamide]	10%	2%	11.5%	30%
CCOC(=O)C1=C(CC)NC(CC)=C(C(=O)OCC)C1c1ccc(Br)s1 [PT-181, diethyl 4-(5-bromothiophen-2-yl)-2,6-diethyl-1,4-dihydropyridine-3,5-dicarboxylate]	8%	61%	10.5%	73%
CCOC(=O)C1=C(C(C)C)NC(C(C)C)=C(C(=O)OCC)C1c1ccc(Br)s1 [PT-183, diethyl 4-(5-bromothiophen-2-yl)-2,6-diisopropyl-1,4-dihydropyridine-3,5-dicarboxylate]	0%	16%	10%	10%
CCOC(=O)C1=C(C)N(C)C(C)=C(C(=O)OCC)C1c1cccc2ccccc12 [PT-191, diethyl 1,2,6-trimethyl-4-(naphthalen-1-yl)-1,4-dihydropyridine-3,5-dicarboxylate]	12%	37%	26.5%	68%
CCOC(=O)C1=C(C)Nc2nnnn2C1c1cccc2ccccc12 (stereo not shown) [PT-192, ethyl 5-methyl-7-(naphthalen-1-yl)-4,7-dihydrotetrazolo[1,5-a]pyrimidine-6-carboxylate]	9%	12%	23%	29%
CCOC(=O)C1=C(C)Nc2nc(C#N)c(C#N)n2C1c1cccc2ccccc12 (stereo not shown) [PT-194, ethyl 2,3-dicyano-7-methyl-5-(naphthalen-1-yl)-5,8-dihydroimidazo[1,2-a]pyrimidine-6-carboxylate]	21%	61%	25%	91%
